Measured values as given in patent publication US9833497B2, “Human originated EGF domain proteins and use of the same” (CHENGDU SOURCEBIO LIMITED-LIABILITY COMPANY, priority 2013, dated 2017).

Columns and labels:
Format in all cases: cell-based
[1] = test system: Citrobacter diversus; test: MIC against Gram-negative bacteria: Citrobacter diversus; conditions: for MIC: C. diversus; for MIC against C. diversus / MIC C. diversus: 5×10^5 CFU/mL
In short: (§1)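 Two-fold serial dilutions of each purified human EGF domain protein, three replicate wells per level, were combined with bacteria at a final 5×10^5 CFU/mL in LB. Cultures were shaken at 175 rpm, 37° C. The MIC was taken as the minimum concentration preventing growth.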

[2] = test system: Aeromonas hydrophila; test: MIC against Gram-negative bacteria: Aeromonas hydrophila; conditions: for MIC: A. hydrophila; for MIC against A. hydrophila / MIC A. hydrophila: 5×10^5 CFU/mL
In short: as §1

[3] = test system: E. coli BL21; test: MIC against Gram-negative bacteria: E. coli BL21; conditions: for MIC: E. coli BL21; for MIC against E. coli BL21 / MIC E. coli BL21: 5×10^5 CFU/mL
In short: as §1

[4] = test system: Enterobacter cloacae; test: MIC against Gram-negative bacteria: Enterobacter cloacae; conditions: for MIC: E. cloacae; for MIC against E. cloacae / MIC E. cloacae: 5×10^5 CFU/mL
In short: as §1

[5] = test system: Proteus vulgaris; test: MIC against Gram-negative bacteria: Proteus vulgaris; conditions: for MIC: P. vulgaris; for MIC against P. vulgaris / MIC P. vulgaris: 5×10^5 CFU/mL
In short: as §1

[6] = test system: Moraxella catarrhalis; test: MIC against Gram-negative bacteria: Moraxella catarrhalis; conditions: for MIC: M. catarrhalis; for MIC against M. catarrhalis / MIC M. catarrhalis: 5×10^5 CFU/mL
In short: as §1

[7] = test system: Proteus mirabilis; test: MIC against Gram-negative bacteria: Proteus mirabilis; conditions: for MIC: P. mirabilis; for MIC against P. mirabilis / MIC P. mirabilis: 5×10^5 CFU/mL
In short: as §1

[8] = test system: Klebsiella pneumonia; test: MIC against Gram-negative bacteria: Klebsiella pneumonia; conditions: for MIC: K. pneumonia; for MIC against K. pneumonia / MIC K. pneumonia: 5×10^5 CFU/mL
In short: as §1

[9] = test system: Serratia marcescens; test: MIC against Gram-negative bacteria: Serratia marcescens; conditions: for MIC: S. marcescens; for MIC against S. marcescens / MIC S. marcescens: 5×10^5 CFU/mL
In short: as §1

[10] = test system: Pseudomonas aeruginosa; test: MIC against Gram-negative bacteria: Pseudomonas aeruginosa; conditions: for MIC: P. aeruginosa; for MIC against P. aeruginosa / MIC P. aeruginosa: 5×10^5 CFU/mL
In short: as §1

[11] = test system: E. coli DH5α; test: Antibacterial activity: MIC and growth curve against E. coli DH5α in 96-well plate; conditions: minimal inhibitory concentration against E. coli DH5α; 96-well plate, 5×10^5 CFU/mL, 37° C., judged after 8 h
In short: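 Log-phase bacteria (OD600 ~0.5) resuspended in LB at 5×10^5 CFU/mL, exposed to recombinant protein at 50, 25, 12.5 μg/mL final in triplicate, 37 °C shaking at 175 rpm. OD600 read every 30 min; MIC is lowest concentration showing no growth.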

[12] = 10 h cultivation at 37° C., two-fold serial dilution

PRT1008 (ELDACQSQPCHNHGTCTPKPGGFHCACPPGFVGLRCE; listed as Homo sapiens)
MIC ([1]; 10 h cultivation at 37° C.): 50 µg/mL | MIC ([2]; 10 h cultivation at 37° C.): 12.5 µg/mL | MIC ([3]; 10 h cultivation at 37° C.): 12.5 µg/mL | MIC ([4]; 10 h cultivation at 37° C.): 50 µg/mL | MIC ([5]; 10 h cultivation at 37° C.): 50 µg/mL | MIC ([6]; 10 h cultivation at 37° C.): 12.5 µg/mL | MIC ([7]; 10 h cultivation at 37° C.): 25 µg/mL | MIC ([8]; 10 h cultivation at 37° C.): 12.5 µg/mL | MIC ([9]; 10 h cultivation at 37° C.): 25 µg/mL | MIC ([10]; 10 h cultivation at 37° C.): 12.5 µg/mL | MIC [11]: 50 µg/mL

PRT447 (DVDECAQALHDRRPSQDCHNLSGSYQCTCPDGYRKIGPE; listed as Homo sapiens)
MIC against C. diversus ([1]; 96-well plate, 37° C., 10 h): 12.5 µg/mL | MIC against A. hydrophila ([2]; 96-well plate, 37° C., 10 h): 25 µg/mL | MIC against E. coli BL21 ([3]; 96-well plate, 37° C., 10 h): 25 µg/mL | MIC against E. cloacae ([4]; 96-well plate, 37° C., 10 h): 50 µg/mL | MIC against P. vulgaris ([5]; 96-well plate, 37° C., 10 h): 12.5 µg/mL | MIC against M. catarrhalis ([6]; 96-well plate, 37° C., 10 h): 25 µg/mL | MIC against P. mirabilis ([7]; 96-well plate, 37° C., 10 h): 50 µg/mL | MIC against K. pneumonia ([8]; 96-well plate, 37° C., 10 h): 25 µg/mL | MIC against S. marcescens ([9]; 96-well plate, 37° C., 10 h): 50 µg/mL | MIC against P. aeruginosa ([10]; 96-well plate, 37° C., 10 h): 12.5 µg/mL | MIC [11]: 50 µg/mL

PRT1114 (PSKECSLNVTCLDGSPCEGGSPAANCSCLEGLAGQRCQ; listed as Homo sapiens)
MIC C. diversus [1, 12]: 12.5 µg/mL | MIC A. hydrophila [2, 12]: 25 µg/mL | MIC E. coli BL21 [3, 12]: 12.5 µg/mL | MIC E. cloacae [4, 12]: 25 µg/mL | MIC P. vulgaris [5, 12]: 25 µg/mL | MIC M. catarrhalis [6, 12]: 25 µg/mL | MIC P. mirabilis [7, 12]: 50 µg/mL | MIC K. pneumonia [8, 12]: 50 µg/mL | MIC S. marcescens [9, 12]: 12.5 µg/mL | MIC P. aeruginosa [10, 12]: 25 µg/mL | MIC [11]: 25 µg/mL

PRT664 (DINECLTLGLCKDAECVNTRGSYLCTCRPGLMLDPSRSRCV; listed as Homo sapiens)
MIC C. diversus ([1]; 96-well plate, 37° C., 10 h): 12.5 µg/mL | MIC A. hydrophila ([2]; 96-well plate, 37° C., 10 h): 50 µg/mL | MIC E. coli BL21 ([3]; 96-well plate, 37° C., 10 h): 50 µg/mL | MIC E. cloacae ([4]; 96-well plate, 37° C., 10 h): 25 µg/mL | MIC P. vulgaris ([5]; 96-well plate, 37° C., 10 h): 12.5 µg/mL | MIC M. catarrhalis ([6]; 96-well plate, 37° C., 10 h): 25 µg/mL | MIC P. mirabilis ([7]; 96-well plate, 37° C., 10 h): 50 µg/mL | MIC K. pneumonia ([8]; 96-well plate, 37° C., 10 h): 12.5 µg/mL | MIC S. marcescens ([9]; 96-well plate, 37° C., 10 h): 25 µg/mL | MIC P. aeruginosa ([10]; 96-well plate, 37° C., 10 h): 25 µg/mL | MIC [11]: 25 µg/mL

PRT988 (DVDECQLQPNACHNGGTCFNTLGGHSCVCVNGWTGESCS; listed as Homo sapiens)
MIC ([1]; 10 h cultivation at 37° C.): 12.5 µg/mL | MIC ([2]; 10 h cultivation at 37° C.): 50 µg/mL | MIC ([3]; 10 h cultivation at 37° C.): 50 µg/mL | MIC ([4]; 10 h cultivation at 37° C.): 12.5 µg/mL | MIC ([5]; 10 h cultivation at 37° C.): 50 µg/mL | MIC ([6]; 10 h cultivation at 37° C.): 50 µg/mL | MIC ([7]; 10 h cultivation at 37° C.): 12.5 µg/mL | MIC ([8]; 10 h cultivation at 37° C.): 50 µg/mL | MIC ([9]; 10 h cultivation at 37° C.): 12.5 µg/mL | MIC ([10]; 10 h cultivation at 37° C.): 12.5 µg/mL | MIC [11]: 12.5 µg/mL

PRT476 (VVPVCRPNPCQNGATCSRHKRRSKFTCACPDQFKGKFCE; listed as Homo sapiens)
MIC against C. diversus ([1]; 96-well plate, 37° C., 10 h): 50 µg/mL | MIC against A. hydrophila ([2]; 96-well plate, 37° C., 10 h): 12.5 µg/mL | MIC against E. coli BL21 ([3]; 96-well plate, 37° C., 10 h): 12.5 µg/mL | MIC against E. cloacae ([4]; 96-well plate, 37° C., 10 h): 50 µg/mL | MIC against P. vulgaris ([5]; 96-well plate, 37° C., 10 h): 12.5 µg/mL | MIC against M. catarrhalis ([6]; 96-well plate, 37° C., 10 h): 25 µg/mL | MIC against P. mirabilis ([7]; 96-well plate, 37° C., 10 h): 25 µg/mL | MIC against K. pneumonia ([8]; 96-well plate, 37° C., 10 h): 12.5 µg/mL | MIC against S. marcescens ([9]; 96-well plate, 37° C., 10 h): 50 µg/mL | MIC against P. aeruginosa ([10]; 96-well plate, 37° C., 10 h): 50 µg/mL | MIC [11]: 12.5 µg/mL

PRT1097 (NIDECFSNPCIHGNCSDRVAAYHCTCEPGYTGVNCE; listed as Homo sapiens)
MIC C. diversus [1, 12]: 25 µg/mL | MIC A. hydrophila [2, 12]: 12.5 µg/mL | MIC E. coli BL21 [3, 12]: 12.5 µg/mL | MIC E. cloacae [4, 12]: 25 µg/mL | MIC P. vulgaris [5, 12]: 12.5 µg/mL | MIC M. catarrhalis [6, 12]: 100 µg/mL | MIC P. mirabilis [7, 12]: 25 µg/mL | MIC K. pneumonia [8, 12]: 12.5 µg/mL | MIC S. marcescens [9, 12]: 25 µg/mL | MIC P. aeruginosa [10, 12]: 25 µg/mL | MIC [11]: 25 µg/mL
